Data taken from patent publication US20100216661A1, “Diagnostic Assay” (priority 2007, published 2010).
Values belong to the substance of their own block, whether it stands above or below them.

Key:
[1] = test system: anti-Fy^b monoclonal antibody (LM447); test: SPOTs membrane hybridisation with anti-Fy^b antibody; format: binding, Murine; settings: for SPOTs binding of anti-Fy^b antibody LM447 to consensus sequence-derived substituted peptides: FIG. 6, 16 peptides Fyb72-87, signal dramatically lower than positive control CPep75 (Spot 17); for SPOTs binding of anti-Fy^b antibody LM447 to membrane-synthesised peptide: FIG. 2, 20 Fyb peptides in duplicate, CPep75 (Spot 21) positive control, 2 μg/ml primary antibody, chemiluminescence
Description: (§1) The peptide mimotopes were synthesised by the SPOT method (Frank; 1992) using F-moc chemistry. The peptides were anchored to an amino-PEG derivatised cellulose membrane (Intavis AG) and synthesised as discrete spots. Synthesis was by stepwise elongation of the peptide chain from C-terminus to the N-terminus, by manual pipetting of the respective amino acids, according to the Sigma Genosys protocol. Incubation times were modified when using Intavis AG membranes. After addition of the final amino acid, the terminal residues and side chains of the peptides were deprotected and the membrane was washed with methanol; air dried and then stored at −20° C. prior to use.
(§2) A membrane was placed in a 50 ml Falcon tube and blocked overnight at 4° C. with gentle agitation in TBS/0.25% Tween 20/5% skimmed milk powder. A 2 μg/ml dilution of the primary (1°) antibody (monoclonal or polyclonal) was prepared in TBS/0.25% Tween20/5% skimmed milk powder before incubation with the membrane for 1 hour at room temperature on a spiral rotor. Following 4 washes, each for 5 minutes with 20 ml of TBS/0.25% Tween20, the membrane was incubated for 1 hour at room temperature with a 1/5000 dilution of the secondary (2°) antibody, prepared in TBS/0.25% Tween20/5% skimmed milk powder. Peroxidase labelled rabbit anti-mouse IgG (Sigma) was used for the detection of the murine anti-Fy^a (LM487) and anti-Fy^b (LM447) 1° antibodies and peroxidase labelled goat anti-human IgG (Pharmacia) for the detection of the human 1° antibodies. Following 4 washes, each for 5 minutes with 20 ml of TBS/0.25% Tween20, the membrane was blotted to remove excess fluid. Bound antibody was detected by chemiluminescence. ECL detection reagents (Amersham Biosciences) were mixed and overlaid on the membrane for 2 minutes. The chemiluminescent substrate was removed and the membrane blotted to remove excess fluid. Positive spots were visualised following exposure to Hyperfilm ECL (Amersham Biosciences) for a series of short incubation times (5 seconds to 10 minutes).

[2] = test system: anti-Fy^a monoclonal antibody (LM487); test: Phage ELISA (capture ELISA) of phage-peptides on coated anti-Fy^a antibody; format: binding, Murine; settings: FIG. 3; 19 Fya phage-peptide clones (Fya1-18 & Fya25); OD450 greater than 0.1 considered positive
Description: (§3) The ability of the recovered phage-peptides to react with the antibodies used in their selection was confirmed by capture ELISA. A 10 μg/ml stock of appropriate monoclonal antibody was prepared in ELISA coating buffer and 150 μl aliquots were added to wells of an Immulon 4 ELISA plate, and then incubated overnight at 4° C. Unbound antibody was discarded and the wells were blocked with 350 μl of blocking buffer (0.1M NaHCO3/3% skimmed milk powder) for 1 hour at 4° C. The wells were washed three times with 300 μl TBS/0.5% Tween 20 and 100 μl of selected phage culture supernatants were added to appropriate wells for 1 hour at room temperature. Unbound phage were removed and the wells washed six times with 300 μl TBS/0.5% Tween 20. A 1:5000 dilution of horseradish peroxidase (HRP) conjugated anti-M13, secondary antibody was prepared in blocking buffer and 100 μl aliquots added to each well. Following incubation for 1 hour at room temperature the wells were washed six times with 300 μl TBS/0.5% Tween 20. To develop the reactions, a 200 μl aliquot of o-phenylenediamine dihydrochloride (OPD) substrate (Sigma) was added to each well. The absorbance at 450 nm was measured, following incubation at room temperature for 1 hour, by a microplate ELISA reader. An OD450 signal greater than 0.1 was considered positive.
Phage ELISA analysis of 19 “Fy^a” phage-peptide clones (Peptides Fya1-18 & Fya25; see Table 3 for sequence details) confirmed the binding specificity of the LM487 antibody for the Fy^a phage-peptides.

[3] = test system: anti-RhD monoclonal antibody T27 (LHM169/81); test: Biopanning of phage-peptide libraries with anti-RhD T27; format: binding, Human
From the text: (§4) Three different phage libraries from New England Biolabs. (Ph.D. 7 and Ph.D. 12 displaying linear 7- and 12-mer peptides, respectively and Ph.D. C7C displaying 7-mer peptides constrained by a disulphide bridge at their termini) and a linear 15mer library (kindly provided by Prof. George P. Smith, University of Missouri) were used in biopanning experiments with 10 different monoclonal antibodies and a polyclonal preparation (Table 1).
(§5) For each target antibody/library combination, a separate well of a 96-well Immulon 4 flat-bottomed ELISA plate (Thermo Labsystems) was coated with 5 μg of antibody in 150 μl ELISA coating buffer (15 mM Na2CO3, 35 mM NaHCO3, pH9.6). Plates were sealed and incubated at 4° C. overnight. Unbound antibody was discarded and 350 μl of blocking buffer (0.1M NaHCO3/3% skimmed milk powder) was added to each well. Plates were sealed and incubated for 1 hour at 4° C. The blocking buffer was removed and the wells were washed six times with 300 μl TBS/0.1% Tween 20. Approximately 2×10^11 plaque forming units (pfu) in 100 μl TBS/0.1% Tween 20 were added to each well and the plates were incubated at room temperature for 1 hour. Wells were washed ten times with 300 μl TBS/0.1% Tween 20. Bound phage were eluted by incubation with 100 μl of 0.2M glycine-HCl/BSA, pH2.2 (1 mg/ml) for 10 minutes, then neutralised with 15 μl of 1M Tris-HCL (pH9.1). An aliquot of the Round 1 eluate was removed and titred. The remainder of the eluted phage were amplified by infection of E. coli ER2538 cells for 4.5 hours at 37° C. The cultures were centrifuged for 10 minutes at 10,000 rpm at 4° C. The supernatants were recovered, ⅙ volume PEG/NaCl (20% polyethylene glycol 8000; 2.5M NaCl) added, then incubated overnight at 4° C. The PEG-precipitated phage were centrifuged at 10,000 rpm for 15 minutes at 4° C. The supernatant was removed and the phage pellet resuspended in 200 μl TBS. Two further rounds of panning were undertaken and approximately 2×10^11 pfu of the Round 2 or Round 3 amplified eluates were used as input phage. Round 3 eluates were titrated but not amplified. Individual plaques were amplified and subjected to PCR amplification, prior to DNA sequence analysis. The specificity of peptide-antibody binding was subsequently determined using both phage ELISA and SPOTs techniques.

[4] = test system: polyclonal anti-RhD preparation (Human Anti-D Ig); test: SPOTs membrane hybridisation with polyclonal anti-RhD; format: binding; settings: FIG. 8; Spots 1-25 = RhD81-105; Spots 26-28 = RhD68, RhD71, RhD79; Spot 29 CPep75 and Spot 30 CPep76 negative controls
Description: as §1
as §2, with “minutes). […]” for “minutes).”

[5] = test system: anti-RhD monoclonal antibody T10 (LHM76/55); test: Biopanning of phage-peptide libraries with anti-RhD T10; format: binding, Human; settings: phage-peptide libraries; three rounds of panning
From the text: as §4, §5

[6] = test system: anti-Fy^b monoclonal antibody (LM447); test: Phage ELISA (capture ELISA) of phage-peptides on coated anti-Fy^b antibody; format: binding, Murine; settings: FIG. 1, LM447 coated from 10 μg/ml stock, phage culture supernatant, OD450 greater than 0.1 considered positive, 20 phage assayed
Description: as §3
The phage ELISA results confirmed the binding of the anti-Fy^b monoclonal, LM447. A 10 μg/ml stock of this monoclonal antibody was prepared in ELISA coating buffer and 150 μl aliquots were added to wells of an Immulon 4 ELISA plate, and then incubated overnight at 4° C. Unbound antibody was discarded and the wells were blocked with 350 μl of blocking buffer for 1 hour at 4° C. The wells were washed three times with 300 μl TBS/0.5% Tween 20 and 100 μl of selected phage culture supernatants were added to appropriate wells for 1 hour at room temperature. Unbound phage were removed and the wells washed six times with 300 μl TBS/0.5% Tween 20. A 1:5000 dilution of horseradish peroxidase (HRP) conjugated anti-M13, secondary antibody was prepared in blocking buffer and 100 μl aliquots added to each well. Following incubation for 1 hour at room temperature the wells were washed six times with 300 μl TBS/0.5% Tween 20. To develop the reactions, 200 μl aliquots of o-phenylenediamine dihydrochloride (OPD) substrate (Sigma) was added to each well. The absorbance at 450 nm was measured following incubation at room temperature for 1 hour. The absorbance values at 450 nm, confirmed the binding of 14 (Peptides Fyb1, Fyb2, Fyb4-5, Fyb7-13, Fyb25, 27 & 28) of the 20 phage assayed (see FIG. 1).

[7] = test system: anti-RhE monoclonal antibody E0002; test: SPOTs membrane hybridisation with anti-RhE monoclonal E0002; format: binding, Human; settings: FIG. 9; 36 RhE peptide mimotopes; CPep75 (Spot 37), CPep76 (Spot 38) negative controls
Description: as §1, §2
The RhD, RhE and Rhe peptide mimotopes (see Tables 4 & 5) were synthesised by SPOTs and hybridisation of the membranes was undertaken with the appropriate antibodies (Table 1). FIGS. 7-10 show examples of peptide mimotopes reacting specifically with the antibody originally used in their selection.

SPOTs binding of anti-Fy^b antibody LM447 to consensus sequence-derived substituted peptides [1]: capable of binding
Substance: MFQPDNPPTKNP [Fyb84]

Phage ELISA binding of phage-peptide to anti-Fy^a antibody LM487 [2]: failed to bind
Substance: Fya14: Fya peptide mimotope, Table 3 (GDWLHW)

Substance: RhD 9 (WHFEWWRATPSG)
Panning Antibody (antibody that selected the phage-peptide in biopanning) [3]: RhD T27

Substance: RhD71: RhD peptide mimotope, Table 4 (VPWFRAP)
SPOTs recognition by polyclonal anti-RhD [4]: recognised | Selection by biopanning with anti-RhD monoclonal antibody T10 [5]: identified through biopanning

SPOTs binding of anti-Fy^b antibody LM447 to membrane-synthesised peptide [1]: failed to react
Substance: MFQEHTPAFGGL [Fyb7]
Phage ELISA binding of phage-peptide to anti-Fy^b antibody LM447 (absorbance at 450 nm) [6]: phage ELISA signals equally as strong as Peptides Fyb12 and Fyb13

Substance: RhD 12 (HQNPWLLWPRGF)
Panning Antibody (antibody that selected the phage-peptide in biopanning) [3]: RhD T27

SPOTs binding of anti-Fy^b antibody LM447 to membrane-synthesised peptide [1]: Binding was also observed
Substance: PDGDYDANLEAAAP [CPep75, 14-mer immunisation peptide used in the development of the LM447 antibody, reference compound]
Reciprocal SPOTs hybridisation: binding of anti-Fy^b monoclonal antibody ([1]; FIG. 5, Spots 1-37 = Fya 1-37, Spots 38-40 = Fya17, Fya25, Fya35, Spot 41 Cpep75, 42 Cpep76, 43 CPep118, 44 Fyb1, membranes hybridised in parallel with both antibodies): capable of binding the anti-Fy^b antibody

Substance: RhD 4 (HTALSTS)
Panning Antibody (antibody that selected the phage-peptide in biopanning) [3]: RhD T27

Substance: RhD 7 (TTVPDTWVLFPR)
Panning Antibody (antibody that selected the phage-peptide in biopanning) [3]: RhD T27

SPOTs binding of anti-Fy^b antibody LM447 to membrane-synthesised peptide [1]: successfully bound
Substance: TFQPRSWPNIDL [Fyb12]

Substance: RhD 5 (TPGSGQF)
Panning Antibody (antibody that selected the phage-peptide in biopanning) [3]: RhD T27

SPOTs binding of anti-Fy^b antibody LM447 to membrane-synthesised peptide [1]: failed to react
Substance: MFQPTHWGTRLS [Fyb9]
Phage ELISA binding of phage-peptide to anti-Fy^b antibody LM447 (absorbance at 450 nm) [6]: phage ELISA signals equally as strong as Peptides Fyb12 and Fyb13

Substance: RhD 10 (NYPAVVSNSLLA)
Panning Antibody (antibody that selected the phage-peptide in biopanning) [3]: RhD T27

Phage ELISA binding of phage-peptide to anti-Fy^a antibody LM487 [2]: failed to bind
Substance: Fya18: Fya peptide mimotope, Table 3 (PSPGQI)

Substance: RhD 8 (SNVPLHWILSPR)
Panning Antibody (antibody that selected the phage-peptide in biopanning) [3]: RhD T27

Substance: RhD 14 (DRRIFWWSLRSAPGA)
Panning Antibody (antibody that selected the phage-peptide in biopanning) [3]: RhD T27

Substance: RhD 6 (FSPNNSETTNYT)
Panning Antibody (antibody that selected the phage-peptide in biopanning) [3]: RhD T27

Substance: RhD 1 (GLFKIQP)
Panning Antibody (antibody that selected the phage-peptide in biopanning) [3]: RhD T27

Substance: RhD 13 (VIDWLLCPRGFSACM)
Panning Antibody (antibody that selected the phage-peptide in biopanning) [3]: RhD T27

SPOTs binding of anti-RhE monoclonal antibody E0002 [7]: Specific binding
Substance: RhE25: RhE peptide mimotope, Table 5 (GLSYYALITRYLGAA)

Substance: RhD79: RhD peptide mimotope, Table 4 (LPWYRH)
SPOTs recognition by polyclonal anti-RhD [4]: recognised | Selection by biopanning with anti-RhD monoclonal antibody T10 [5]: identified through biopanning

SPOTs binding of anti-Fy^b antibody LM447 to consensus sequence-derived substituted peptides [1]: capable of binding
Substance: MFQPDNPPTKNV [Fyb85]

Substance: RhD 2 (LGHHNPH)
Panning Antibody (antibody that selected the phage-peptide in biopanning) [3]: RhD T27

Substance: RhD68: RhD peptide mimotope, Table 4 (LDTYWYREHFRR)
SPOTs recognition by polyclonal anti-RhD [4]: recognised | Selection by biopanning with anti-RhD monoclonal antibody T10 [5]: identified through biopanning

SPOTs binding of anti-Fy^b antibody LM447 to membrane-synthesised peptide [1]: successfully bound
Substance: TFQYLDPPPFTP [Fyb13]

SPOTs binding of anti-Fy^b antibody LM447 to membrane-synthesised peptide [1]: failed to react
Substance: MYQDTPPPRKNV [Fyb1]
Phage ELISA binding of phage-peptide to anti-Fy^b antibody LM447 (absorbance at 450 nm) [6]: phage ELISA signals equally as strong as Peptides Fyb12 and Fyb13

Phage ELISA binding of phage-peptide to anti-Fy^a antibody LM487 [2]: failed to bind
Substance: Fya2: Fya peptide mimotope, Table 3 (TNLRLPA)

Substance: RhD 11 (DVYDTRPYHGFM)
Panning Antibody (antibody that selected the phage-peptide in biopanning) [3]: RhD T27

SPOTs binding of anti-Fy^b antibody LM447 to membrane-synthesised peptide [1]: failed to react
Substance: MVQELPFVLRSK [Fyb11]
Phage ELISA binding of phage-peptide to anti-Fy^b antibody LM447 (absorbance at 450 nm) ([6]; listed as Fybll): phage ELISA signals equally as strong as Peptides Fyb12 and Fyb13
